Data taken from patent publication US9695155B2, “Herbicidal substituted pyrimidinyloxy benzene compounds” (E. I. DU PONT DE NEMOURS AND COMPANY, priority 2013, dated 2017).

Legend:
[1] = tested on: large (Lg) crabgrass; experiment: Test A preemergence; assay type: in vivo, Digitaria sanguinalis; conditions: 1000 g ai/ha, 0 to 100 scale, 0 no effect, 100 complete control
Procedure, shortened: (§1)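 Injury scores run from 0, no effect, to 100, complete control, judged by eye against untreated plants roughly 10 days after treatment. Chemicals carried a surfactant in a non-phytotoxic solvent and went onto loam–sand soil preemergence or onto one- to two-leaf seedlings postemergence.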

[2] = tested on: giant foxtail; experiment: Test A preemergence; assay type: in vivo, Setaria faberii; conditions: 1000 g ai/ha, 0 to 100 scale, 0 no effect, 100 complete control, approx. 10 days
Procedure, shortened: as §1

[3] = tested on: velvetleaf; experiment: Test A preemergence; assay type: in vivo, Abutilon theophrasti; conditions: 1000 g ai/ha, 0 to 100 scale, 0 no effect, 100 complete control, approx. 10 days
Procedure, shortened: as §1

[4] = tested on: pigweed; experiment: Test A postemergence; assay type: in vivo, Amaranthus retroflexus; conditions: 1000 g ai/ha, 0 to 100 scale, 0 no effect, 100 complete control
Procedure, shortened: as §1

[5] = tested on: Heteranthera limosa; experiment: Test B flooded paddy test; assay type: in vivo; conditions: Flood, 250 g ai/ha; 0 to 100 scale where 0 is no effect and 100 is complete control
Procedure, shortened: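 Flooded to 3 cm at the 2-leaf stage, pots received compound through the paddy water and were kept at that depth under greenhouse conditions. After 13–15 days, effect was rated by eye relative to controls, 0 = none and 100 = complete control.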

[6] = tested on: Italian ryegrass; experiment: Test C preemergence; assay type: in vivo, Lolium multiflorum; conditions: for Ryegrass, Italian plant response rating: preemergence
Procedure, shortened: (§2)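 Whole-plant greenhouse test with surfactant-containing solvent formulation, applied preemergence to sown loam–sand pots or postemergence to 2–18 cm plants. Scored by eye 13 to 15 days on, 0–100 scale.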

[7] = tested on: galium; experiment: Test C preemergence; assay type: in vivo, Galium aparine; conditions: for Galium plant response rating: preemergence
Procedure, shortened: as §2

[8] = tested on: johnsongrass; experiment: Test C preemergence; assay type: in vivo, Sorghum halepense; conditions: for Johnsongrass plant response rating: preemergence
Procedure, shortened: as §2

[9] = tested on: morningglory; experiment: Test C preemergence; assay type: in vivo, Ipomoea coccinea; conditions: for Morningglory plant response rating: preemergence
Procedure, shortened: as §2

[10] = tested on: oilseed rape; experiment: Test C preemergence; assay type: in vivo, Brassica napus; conditions: for Oilseed Rape plant response rating: preemergence
Procedure, shortened: as §2

[11] = tested on: velvetleaf; experiment: Test C preemergence; assay type: in vivo, Abutilon theophrasti; conditions: for Velvetleaf plant response rating: preemergence
Procedure, shortened: as §2

[12] = tested on: wheat, winter; experiment: Test C postemergence; assay type: in vivo, Triticum aestivum; conditions: for Plant response rating, Wheat: scale 0 to 100 (0 no effect, 100 complete control)
Procedure, shortened: as §2

[13] = tested on: corn; experiment: Test C postemergence; assay type: in vivo, Zea mays; conditions: for Plant response rating, Corn: scale 0 to 100 (0 no effect, 100 complete control)
Procedure, shortened: as §2

[14] = tested on: large (Lg) crabgrass; experiment: Test C postemergence; assay type: in vivo, Digitaria sanguinalis; conditions: for Plant response rating, Crabgrass, Large: scale 0 to 100 (0 no effect, 100 complete control)
Procedure, shortened: as §2

[15] = tested on: chickweed; experiment: Test C postemergence; assay type: in vivo, Stellaria media; conditions: for Plant response rating, Chickweed: scale 0 to 100 (0 no effect, 100 complete control)
Procedure, shortened: as §2

[16] = 16 g ai/ha, scale 0 to 100 (0 no effect, 100 complete control)
[17] = 62 g ai/ha, scale 0 (no effect) to 100 (complete control)
[18] = 125 g ai/ha, scale 0 (no effect) to 100 (complete control)
[19] = Preemergence, 31 g ai/ha, scale 0 to 100, 0 no effect, 100 complete control
[20] = 16 g ai/ha, postemergence, 0 is no effect, 100 is complete control
[21] = 125 g ai/ha, postemergence, visual rating

## N#Cc1cn(-c2c(Br)cccc2Oc2ncc(Cl)cn2)nn1 [Compound 116]
[1]
  Plant response rating, Crabgrass, Large: 100
[2]
  Foxtail, Giant plant response rating: 100
[3]
  Velvetleaf plant response rating: 100
[4]
  Plant response rating, Pigweed: 100
[5]
  Plant response rating, Ducksalad: 60
[6]; [16]
  Ryegrass, Italian plant response rating: 0
[6]; [17]
  Ryegrass, Italian plant response rating: 10
[6]; [18]
  Ryegrass, Italian plant response rating: 35
[6]; [19]
  Plant response rating, Ryegrass, Italian: 0
[7]; [16]
  Galium plant response rating: 0
[7]; [17]
  Galium plant response rating: 100
[7]; [18]
  Galium plant response rating: 100
[7]; [19]
  Plant response rating, Galium: 100
[8]; [16]
  Johnsongrass plant response rating: 0
[8]; [17]
  Johnsongrass plant response rating: 55
[8]; [18]
  Johnsongrass plant response rating: 70
[8]; [19]
  Plant response rating, Johnsongrass: 25
[9]; [16]
  Morningglory plant response rating: 0
[9]; [17]
  Morningglory plant response rating: 20
[9]; [18]
  Morningglory plant response rating: 20
[9]; [19]
  Plant response rating, Morningglory: 5
[10]; [16]
  Oilseed Rape plant response rating: 0
[10]; [17]
  Oilseed Rape plant response rating: 98
[10]; [18]
  Oilseed Rape plant response rating: 100
[10]; [19]
  Plant response rating, Oilseed Rape: 5
[11]; [16]
  Velvetleaf plant response rating: 20
[11]; [17]
  Velvetleaf plant response rating: 100
[11]; [18]
  Velvetleaf plant response rating: 100
[11]; [19]
  Plant response rating, Velvetleaf: 70
[12]; [20]
  Plant response rating (0 to 100), Wheat: 0
[12]; [21]
  Plant response rating, Wheat: 5
[12]; Postemergence, 62 g ai/ha
  Plant response rating, Wheat: 5
[13]; [20]
  Plant response rating (0 to 100), Corn: 0
[13]; [21]
  Plant response rating, Corn: 5
[13]; Postemergence, 62 g ai/ha
  Plant response rating, Corn: 5
[14]; [20]
  Plant response rating (0 to 100), Crabgrass, Large: 5
[14]; [21]
  Plant response rating, Crabgrass, Large: 30
[14]; Postemergence, 62 g ai/ha
  Plant response rating, Crabgrass, Large: 15
[15]; [20]
  Plant response rating (0 to 100), Chickweed: 40
[15]; [21]
  Plant response rating, Chickweed: 80
[15]; Postemergence, 62 g ai/ha
  Plant response rating, Chickweed: 55
